According to patent publication US20130096160A1, “ARYLTHIAZOLYL PIPERIDINES AND RELATED COMPOUNDS AS MODULATORS OF SURVIVAL MOTOR NEURON (SMN) PROTEIN PRODUCTION” (Secretary, Department of Health and Human Services, priority 2010, published 2013):

Tests used:
[1] = test system: SMN2-luciferase reporter; assay: SMN2-luciferase reporter qHTS assay; assay type: cell-based, human; details: SMN2-luc reporter, FIG. 1
Method in brief: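 SMN2 exon-7 splicing firefly-luciferase reporter cell line, ~2000 cells/well in phenol-red-free DMEM with 10% serum, allowed to adhere 10–12 h, then exposed to compounds for 2 days at 37 C, 5% CO2. Seven-point five-fold dilution series (e.g. 50 μM to 3.2 nM), OneGlo luminescence read, curves fitted to Hill equation.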

[2] = test system: SMN1-luciferase reporter; assay: SMN1-luciferase reporter control cell line; assay type: cell-based, human; details: SMN1-luc reporter, FIG. 1
Text: A cell-based quantitative high throughput screening (qHTS) assay is used to identify compounds able to increase SMN production. The assay uses a SMN2-luciferase reporter to determine if exon 7 of the SMN gene is expressed, which correlates with increased full-length SMN production from the SMN2 gene. As controls, a homologue SMN1-luciferase reporter cell line looks for variations in expression of the SMN1 gene and a cell line with just the luciferase reporter looks at the capacity of the compounds to inhibit luciferase. In addition, increments in SMN production by lead compounds were confirmed by Western-Blot analysis using SMA patient fibroblasts.
The SMN reporters used herein are modified from those previously described (M. L. Zhang, C. L. Lorson, E. J. Androphy and J. Zhou, An in vivo reporter system for measuring increased inclusion of exon 7 in SMN2 mRNA: potential therapy of SMA, Gene Ther 8 (2001), pp. 1532-1538.)
The sequence of the SMN1 reporter vector used herein is given in SEQ ID NO.:1, while that of the SMN2 reporter vector is given in SEQ ID NO.:2. […]

[3] = test system: human SMN protein; assay: Western blot of SMN protein in SMA patient fibroblasts (3813); assay type: cell-based; details: SMA patient cells (3813), 0.1-10 μM, FIG. 2
Procedure: Type I spinal muscular atrophy (SMA)-affected human primary fibroblasts (#GM03813) and carrier parents (#GM03814, parent and #GM03815, […]) are obtained live with low passage number from Coriell Cell Repositories. […] For detection of SMN protein in patient fibroblasts, 8,000 cells per cm^2 are plated 24 hours prior to drug addition. Fresh media and compound are added every 24 hours. After 72 hours, cells are harvested, washed with cold PBS, and lysed. Samples are subjected to polyacrylamide gel electrophoresis (PAGE). It is determined that 10 μg total protein per lane is within the linear range for immunoblot detection of SMN and alpha-tubulin. Western blots of the gel are probed for SMN with the 4B7 mouse monoclonal antibody (from the lab of Christian Lorson). A goat anti-mouse antibody (Santa Cruz Biotechnology/#sc-2005) conjugated to horseradish peroxidase (HRP) is used as the secondary antibody. Quantification of protein is performed by detecting chemiluminescence with a Fujifilm LAS-4000 Multifunctional Imaging System. […] We incubated a fibroblast cell line from a type I SMA patient (3813 cell line) with different doses of analogues and assessed the SMN protein level by quantitative western blotting (FIG. 4). We observed that analogue 8 m at concentration of 37 nanomolar increased the SMN protein level by 2-3 fold. […] This could be due with the intrinsic mechanism of action or to other causes, such us concentration dependent compound solubility.

SMILES: COc1nc(-c2ccccc2)nnc1-c1ccccc1 [MLS000763654]
- expression of SMN2 / levels of the full length SMN2 gene (in words) [1]: increases the expression of SMN2
- expression of SMN1 (in words) [2]: reduces the expression of SMN1
- SMN protein by Western blot (in words) [3]: concentration-dependent increase in SMN protein
